According to US4791197A, “Cephalosporin compounds” (priority 1984, dated 1988):
Counter-ions that a name gives are not always drawn.

Legend:
Assay in all cases: MIC against growth of bacteria by agar-dilution method
Format in all cases: cell-based
[1] = tested on: Escherichia coli NIHJ JC-2; settings: NIHJJC2
Description: (§1) The compounds of this invention are all novel compounds.

[2] = tested on: Klebsiella pneumoniae PCI 602; settings: PCI602
Description: as §1

Proteus mirabillis GN 79 = tested on: Proteus mirabillis GN 79
Description: as §1

Proteus rettgeri GN 624 = settings: Providencia rettgeri, GN624
Description: as §1

Proteus vulgaris GN 76 = settings: GN76
Description: as §1

[3] = tested on: Pseudomonas aeruginosa MB 3833; settings: MB3833
Description: as §1

[4] = tested on: Salmonella typhimurium LT-2; settings: Salmonella enterica
Description: as §1

[5] = tested on: Serratia marcescens No. 1
Description: as §1

[6] = tested on: Staphylococcus aureus 209P JC-1
Description: as §1

[7] = tested on: Staphylococcus aureus Smith
Description: as §1

Cc1nnc(SCC2=C(C(=O)O)N3C(=O)C(NC(=O)/C(=C\C(=O)O)c4csc(N)n4)C3SC2)s1 (stereo not drawn) [Example 2, 7-[2-(2-aminothiazol-4-yl)-2-carboxymethylene-acetamido]-3-(5-methyl-1,3,4-thiadiazol-2-yl)thiomethyl-3-cephem-4-carboxylic acid (Z-isomer) trifluoroacetate]
MIC [1]: 0.78 µg/mL
MIC [2]: 0.78 µg/mL
MIC (Proteus mirabillis GN 79): 0.2 µg/mL
MIC (Proteus rettgeri GN 624): ≤ 0.025 µg/mL
MIC (Proteus vulgaris GN 76): 0.39 µg/mL
MIC [3]: > 50 µg/mL
MIC [4]: 0.39 µg/mL
MIC [5]: 0.1 µg/mL
MIC [6]: 3.13 µg/mL
MIC [7]: 3.13 µg/mL

C[n+]1ccc(SCC2=C(C(=O)O)N3C(=O)C(NC(=O)/C(=C\C(=O)O)c4csc(N)n4)C3SC2)cc1 (stereo not drawn) [Example 7, 7-[2-(2-aminothiazol-4-yl)-2-carboxymethyleneacetamido]-3-(1-methylpyridinium-4-yl)thiomethyl-3-cephem-4-carboxylic acid (Z-isomer) trifluoroacetate]
MIC [1]: 0.39 µg/mL
MIC [2]: 0.78 µg/mL
MIC (Proteus mirabillis GN 79): 1.56 µg/mL
MIC (Proteus rettgeri GN 624): 0.1 µg/mL
MIC (Proteus vulgaris GN 76): 3.13 µg/mL
MIC [3]: > 50 µg/mL
MIC [4]: 0.39 µg/mL
MIC [5]: 0.78 µg/mL
MIC [6]: 0.2 µg/mL
MIC [7]: 0.39 µg/mL

C[n+]1ccc(SCC2=C(C(=O)O)N3C(=O)C(NC(=O)/C(=C/C(=O)O)c4csc(N)n4)C3SC2)cc1 (stereo not drawn) [Example 10, 7-[2-(2-aminothiazol-4-yl)-2-carboxymethylene-acetamido]-3-(1-methylpyridinium-4-yl)thiomethyl-3-cephem-4-carboxylic acid (E-isomer) trifluoroacetate]
MIC [1]: 12.5 µg/mL
MIC [2]: 25 µg/mL
MIC (Proteus mirabillis GN 79): 50 µg/mL
MIC (Proteus rettgeri GN 624): 3.13 µg/mL
MIC (Proteus vulgaris GN 76): > 50 µg/mL
MIC [3]: > 50 µg/mL
MIC [4]: 12.5 µg/mL
MIC [5]: 25 µg/mL
MIC [6]: 0.78 µg/mL
MIC [7]: 0.78 µg/mL
